This is an account of results in patent US20020192233A1, “Human T cell response to MHC-binding motif clusters” (priority 2000, published 2002).

For test [1], the system named is peripheral blood mononuclear cells from Mtb-immune (PPD skin-test positive) subjects. Type of test: cell-based, human. Conditions: for % responders among Mtb-immune subjects / number of Mtb-immune responders (proliferative response): SI≧2.0; for Phil # responders (n = 38) / Phil % responders (n = 38): Philippines cohort; for Phil # responders (n = 38) / Phil % responders (n = 38) / Prov # responders (n = 22) / Prov % responders (n = 22): positive if SI≧2.0, peptide 1 and 10 μg/ml; for Prov # responders (n = 22) / Prov % responders (n = 22): Providence cohort; for number of Mtb-immune responders (proliferative response): all 40 Mtb-immune subjects.

In test [2] the test system is peripheral blood mononuclear cells from Mtb-naïve (PPD skin-test negative) subjects. Kind of test: Lymphoproliferation assay ([3H]thymidine, stimulation index), Mtb-naïve group. The format is cell-based, human. The note with it: 19 Mtb-naïve controls; SI≧2.0.

Consider “FAYGSFVRTVSLPVGA (listed as Mycobacterium tuberculosis) [16-5, aa 92-107 of 16 kDa Mtb protein]”, for which the “% responders among Mtb-immune subjects” value in test [1] (40 Mtb-immune subjects) amounted to 28%. For the same substance, in test [1], the “Phil # responders (n = 38)” value amounted to 4, the “Phil % responders (n = 38)” value was determined as 10%, the “Prov # responders (n = 22)” value is given as 7 and the “Prov % responders (n = 22)” value was 18%. In addition, the “number of Mtb-immune responders (proliferative response)” value (“number of Mtb-immune responders” below) in test [1] is listed as “six”. For the same substance, the “Mtb-naïve controls who responded” value in test [2] was “none”.
Regarding “PLLNVGKLIANNTRVWVY (listed as Mycobacterium tuberculosis) [32-8, aa 193-210 of 32 kDa Mtb protein (Antigen 85A)]”, the “% responders among Mtb-immune subjects” value in test [1] (40 Mtb-immune subjects) is reported as 25%. Also, in test [1], the “Phil # responders (n = 38)” value turned out to be 5, the “Phil % responders (n = 38)” value is on record as 13%, the “Prov # responders (n = 22)” value amounted to 0 and the “Prov % responders (n = 22)” value was determined as 0%. For the same substance, in test [2], the “Mtb-naïve controls who responded” value is “none”.
As to QNVTGSVVCTTAAGNVN [19-2], in test [1], the “Phil # responders (n = 38)” value is listed as 3, the “Phil % responders (n = 38)” value amounted to 8%, the “Prov # responders (n = 22)” value came out at 4 and the “Prov % responders (n = 22)” value worked out at 10%. Moreover, the “number of Mtb-immune responders” value in test [1] was “six”.
On to “EYWGAQLNAMKP (listed as Mycobacterium tuberculosis) [32-11, aa 265-276 of 32 kDa Mtb protein (Antigen 85A)]”, for which, in test [1], the “Phil # responders (n = 38)” value amounted to 3, the “Phil % responders (n = 38)” value worked out at 8%, the “Prov # responders (n = 22)” value came out at 1 and the “Prov % responders (n = 22)” value is 3%.
For “TFLTSELPGWLQ (listed as Mycobacterium tuberculosis) [32-4, aa 99-110 of 32 kDa Mtb protein (Antigen 85A)]”, in that order: 2, 5%, 2 and 5%.
Consider “LKLGLVEFGGVAKLNAEVMS (listed as Mycobacterium tuberculosis) [14-3, aa 30-49 of 14 kDa Mtb protein]”, for which, in test [1], the “Phil # responders (n = 38)” value is recorded as 3, the “Phil % responders (n = 38)” value is recorded as 8%, the “Prov # responders (n = 22)” value worked out at 4 and the “Prov % responders (n = 22)” value came out at 10%. Moreover, in test [1], the “number of Mtb-immune responders” value is “six”.
In the case of “TT: tetanus toxoid, control antigen (Connaught) [reference compound]”, the SI range in test [1] was 2-182. Besides, the “Mtb-immune subjects showing an in vitro proliferative response” value in test [1] (control antigen 5 μg/ml, 40 Mtb-immune subjects) is “All but six”.
Regarding “VGLSMAASSALTLAIYHPQQ (listed as Mycobacterium tuberculosis) [32-6, aa 123-142 of 32 kDa Mtb protein (Antigen 85A)]”, in test [1], the “Phil # responders (n = 38)” value was 4, the “Phil % responders (n = 38)” value is reported as 10%, the “Prov # responders (n = 22)” value was determined as 6 and the “Prov % responders (n = 22)” value is given as 15%. In test [1], the “number of Mtb-immune responders” value is reported as “six”.
IAIGGAATGIAAVLTDGNPP [19-3]: in test [1], the “Phil # responders (n = 38)” value was found to be 4, the “Phil % responders (n = 38)” value is recorded as 10%, the “Prov # responders (n = 22)” value came to 3 and the “Prov % responders (n = 22)” value is 8%. The “number of Mtb-immune responders” value in test [1] was “six”.
